Data as given in ChEMBL document CHEMBL1671689, “Activity of ceftaroline against recent emerging serotypes of Streptococcus pneumoniae in the United States” (2010).
Values after ≈ are worked out from the molar mass of the structure shown.

How the values were obtained:
Type in all cases: functional
[1] = test system: Streptococcus pneumoniae; test: Antimicrobial activity against Streptococcus pneumoniae serotype 19A by broth microdilution method
[2] = test system: Streptococcus pneumoniae; test: Antimicrobial activity against Streptococcus pneumoniae serotype 3 by broth microdilution method
[3] = test system: Streptococcus pneumoniae; test: Antimicrobial activity against Streptococcus pneumoniae serotype 35B by broth microdilution method
[4] = test system: Streptococcus pneumoniae; test: Antimicrobial activity against Streptococcus pneumoniae serotype 7F by broth microdilution method
[5] = test system: Streptococcus pneumoniae; test: Antimicrobial activity against Streptococcus pneumoniae serotype 11A by broth microdilution method
[6] = test system: Streptococcus pneumoniae; test: Antimicrobial activity against Streptococcus pneumoniae serotype 6C by broth microdilution method
[7] = test system: Streptococcus pneumoniae; test: Antimicrobial activity against multiple drug resistant Streptococcus pneumoniae serotype 19A by broth microdilution method
[8] = test system: Streptococcus pneumoniae; test: Antimicrobial activity against multiple drug resistant Streptococcus pneumoniae serotype 19F by broth microdilution method
[9] = test system: Streptococcus pneumoniae; test: Antimicrobial activity against multiple drug resistant Streptococcus pneumoniae serotype 6B by broth microdilution method
[10] = test system: Streptococcus pneumoniae; test: Antimicrobial activity against Streptococcus pneumoniae serotype 19A assessed as percent susceptible isolates by broth microdilution method
[11] = test system: Streptococcus pneumoniae; test: Antimicrobial activity against Streptococcus pneumoniae serotype 3 assessed as percent susceptible isolates by broth microdilution method
[12] = test system: Streptococcus pneumoniae; test: Antimicrobial activity against Streptococcus pneumoniae serotype 35B assessed as percent susceptible isolates by broth microdilution method
[13] = test system: Streptococcus pneumoniae; test: Antimicrobial activity against Streptococcus pneumoniae serotype 7F assessed as percent susceptible isolates by broth microdilution method
[14] = test system: Streptococcus pneumoniae; test: Antimicrobial activity against Streptococcus pneumoniae serotype 11A assessed as percent susceptible isolates by broth microdilution method
[15] = test system: Streptococcus pneumoniae; test: Antimicrobial activity against Streptococcus pneumoniae serotype 6C assessed as percent susceptible isolates by broth microdilution method
[16] = test system: Streptococcus pneumoniae; test: Antimicrobial activity against multiple drug resistant Streptococcus pneumoniae serotype 19A assessed as percent susceptible isolates by broth microdilution method
[17] = test system: Streptococcus pneumoniae; test: Antimicrobial activity against multiple drug resistant Streptococcus pneumoniae serotype 19F assessed as percent susceptible isolates by broth microdilution method
[18] = test system: Streptococcus pneumoniae; test: Antimicrobial activity against multiple drug resistant Streptococcus pneumoniae serotype 6B assessed as percent susceptible isolates by broth microdilution method
[19] = test system: Streptococcus pneumoniae; test: Antimicrobial activity against Streptococcus pneumoniae serotype 15A assessed as percent susceptible isolates by broth microdilution method
[20] = test system: Streptococcus pneumoniae; test: Antimicrobial activity against Streptococcus pneumoniae serotype 22F assessed as percent susceptible isolates by broth microdilution method
[21] = test system: Streptococcus pneumoniae; test: Antimicrobial activity against Streptococcus pneumoniae serotype 23B assessed as percent susceptible isolates by broth microdilution method
[22] = test system: Streptococcus pneumoniae; test: Antimicrobial activity against Streptococcus pneumoniae serotype 19F assessed as percent susceptible isolates by broth microdilution method
[23] = test system: Streptococcus pneumoniae; test: Antimicrobial activity against Streptococcus pneumoniae serotype 23A assessed as percent susceptible isolates by broth microdilution method

Structure (SMILES)	MIC50 [1] [µg/mL]	MIC90 [1] [µg/mL]	MIC50 [2] [µg/mL]	MIC90 [2] [µg/mL]	MIC50 [3] [µg/mL]	MIC90 [3] [µg/mL]	MIC50 [4] [µg/mL]	MIC90 [4] [µg/mL]	MIC50 [5] [µg/mL]	MIC90 [5] [µg/mL]	MIC50 [6] [µg/mL]	MIC90 [6] [µg/mL]	MIC50 [8] [µg/mL]	MIC90 [8] [µg/mL]	MIC50 [9] [µg/mL]	MIC90 [9] [µg/mL]	Activity [10] [%]	Activity [11] [%]	Activity [12] [%]	Activity [13] [%]	also measured
CO/N=C(\C(=O)N[C@@H]1C(=O)N2C(C(=O)O)=C(COC(N)=O)CS[C@H]12)c1ccco1 [CEFUROXIME]	8 (≈ 18.9 µM)	> 8	≤ 1	≤ 1	4 (≈ 9.43 µM)	4 (≈ 9.43 µM)	≤ 1	≤ 1	≤ 1	≤ 1	2 (≈ 4.71 µM)	4 (≈ 9.43 µM)	8 (≈ 18.9 µM)	> 8	8 (≈ 18.9 µM)	> 8	36.1	100	9.6	9.6	MIC [2]: ≤ 1 µg/mL; MIC [4]: ≤ 1 µg/mL; MIC [5]: ≤ 1 µg/mL; MIC50 [7]: 8 µg/mL (≈ 18.9 µM); Activity [14]: 95.2%; Activity [15]: 47.5%; Activity [16]: 0%; Activity [17]: 0%; Activity [18]: 0%; Activity [19]: 91.4%; Activity [20]: 100%; Activity [21]: 96.8%; Activity [22]: 20.7%; Activity [23]: 96.4%
CCC[C@@H]1C[C@@H](C(=O)N[C@@H]([C@H]2O[C@H](SC)[C@H](O)[C@@H](O)[C@H]2O)[C@H](C)Cl)N(C)C1 [CLINDAMYCIN]	> 2	> 2	≤ 0.25	≤ 0.25	≤ 0.25	≤ 0.25	≤ 0.25	≤ 0.25	≤ 0.25	≤ 0.25	≤ 0.25	≤ 0.25	> 2	> 2	> 2	> 2	43.4	96.3	100	100	MIC [3]: ≤ 0.25 µg/mL; MIC [4]: ≤ 0.25 µg/mL; MIC [7]: > 1 µg/mL; Activity [14]: 95.9%; Activity [15]: 97.7%; Activity [16]: 0%; Activity [17]: 0%; Activity [18]: 0%; Activity [19]: 10.5%; Activity [20]: 100%; Activity [21]: 100%; Activity [22]: 31%; Activity [23]: 81.8%
CC[C@H]1OC(=O)[C@H](C)[C@@H](O[C@H]2C[C@@](C)(OC)[C@@H](O)[C@H](C)O2)[C@H](C)[C@@H](O[C@@H]2O[C@H](C)C[C@H](N(C)C)[C@H]2O)[C@](C)(O)C[C@@H](C)C(=O)[C@H](C)[C@@H](O)[C@]1(C)O [ERYTHROMYCIN]	> 2	> 2	≤ 0.25	≤ 0.25	≤ 0.25	> 2	≤ 0.25	≤ 0.25	≤ 0.25	> 2	> 2	> 2	> 8	> 8	> 8	> 8	26.5	95.1	64.4	64.4	MIC [4]: ≤ 0.25 µg/mL; MIC [7]: > 8 µg/mL; MIC50 [7]: > 8 µg/mL; MIC90 [7]: > 8 µg/mL; MIC [8]: > 8 µg/mL; MIC [9]: > 8 µg/mL; Activity [14]: 75.5%; Activity [15]: 41.9%; Activity [16]: 0%; Activity [17]: 0%; Activity [18]: 0%; Activity [19]: 5.3%; Activity [20]: 88.6%; Activity [21]: 75.8%; Activity [22]: 17.2%; Activity [23]: 78.8%
C[C@@H](O)[C@H]1C(=O)N2C(C(=O)O)=C(SCCNC=N)C[C@H]12 [IMIPENEM ANHYDROUS]	0.5 (≈ 1.67 µM)	1 (≈ 3.34 µM)	≤ 0.12	≤ 0.12	0.25 (≈ 0.835 µM)	0.5 (≈ 1.67 µM)	≤ 0.12	≤ 0.12	≤ 0.12	≤ 0.12	≤ 0.12	≤ 0.12	1 (≈ 3.34 µM)	1 (≈ 3.34 µM)	1 (≈ 3.34 µM)	1 (≈ 3.34 µM)	40.2	100	15.3	15.3	MIC [2]: ≤ 0.12 µg/mL; MIC [4]: ≤ 0.12 µg/mL; MIC [5]: ≤ 0.12 µg/mL; MIC [6]: ≤ 0.12 µg/mL; MIC50 [7]: 1 µg/mL (≈ 3.34 µM); MIC90 [7]: 1 µg/mL (≈ 3.34 µM); Activity [14]: 95.9%; Activity [15]: 90.7%; Activity [16]: 0.8%; Activity [17]: 0.8%; Activity [18]: 0.8%; Activity [19]: 100%; Activity [20]: 100%; Activity [21]: 100%; Activity [22]: 20.7%; Activity [23]: 100%
C[C@H]1COc2c(N3CCN(C)CC3)c(F)cc3c(=O)c(C(=O)O)cn1c23.C[C@H]1COc2c(N3CCN(C)CC3)c(F)cc3c(=O)c(C(=O)O)cn1c23.O [LEVOFLOXACIN]	1	1	1	1	1	1	1	1	1	2	1	1	1	1	1	1	100	100	98.3	98.3	MIC50 [7]: 1 µg/mL; MIC90 [7]: 1 µg/mL; Activity [14]: 100%; Activity [15]: 100%; Activity [16]: 99.2%; Activity [17]: 99.2%; Activity [18]: 99.2%; Activity [19]: 100%; Activity [20]: 100%; Activity [21]: 97%; Activity [22]: 96.6%; Activity [23]: 100%
CC1(C)S[C@@H]2[C@H](NC(=O)Cc3ccccc3)C(=O)N2[C@H]1C(=O)O [PENICILLIN G]	4 (≈ 12 µM)	4 (≈ 12 µM)	≤ 0.03	≤ 0.03	2 (≈ 5.98 µM)	2 (≈ 5.98 µM)	≤ 0.03	≤ 0.03	≤ 0.03	≤ 0.03	0.5 (≈ 1.5 µM)	1 (≈ 2.99 µM)	4 (≈ 12 µM)	4 (≈ 12 µM)	4 (≈ 12 µM)	4 (≈ 12 µM)	46.6	100	98.3	98.3	MIC [2]: ≤ 0.03 µg/mL; MIC [4]: ≤ 0.03 µg/mL; MIC [5]: ≤ 0.03 µg/mL; MIC50 [7]: 4 µg/mL (≈ 12 µM); MIC90 [7]: 4 µg/mL (≈ 12 µM); Activity [14]: 100%; Activity [15]: 100%; Activity [16]: 11.4%; Activity [17]: 11.4%; Activity [18]: 11.4%; Activity [19]: 100%; Activity [20]: 100%; Activity [21]: 100%; Activity [22]: 37.9%; Activity [23]: 100%
CC1(C)S[C@@H]2[C@H](NC(=O)COc3ccccc3)C(=O)N2[C@H]1C(=O)O [PENICILLIN V]	4 (≈ 11.4 µM)	4 (≈ 11.4 µM)	≤ 0.03	≤ 0.03	2 (≈ 5.71 µM)	2 (≈ 5.71 µM)	≤ 0.03	≤ 0.03	≤ 0.03	≤ 0.03	0.5 (≈ 1.43 µM)	1 (≈ 2.85 µM)	4 (≈ 11.4 µM)	4 (≈ 11.4 µM)	4 (≈ 11.4 µM)	4 (≈ 11.4 µM)	13.8	98.8	10.2	10.2	MIC [2]: ≤ 0.03 µg/mL; MIC [4]: ≤ 0.03 µg/mL; MIC [5]: ≤ 0.03 µg/mL; MIC50 [7]: 4 µg/mL (≈ 11.4 µM); MIC90 [7]: 4 µg/mL (≈ 11.4 µM); Activity [14]: 95.9%; Activity [15]: 37.2%; Activity [16]: 0%; Activity [17]: 0%; Activity [18]: 0%; Activity [19]: 10.5%; Activity [20]: 100%; Activity [21]: 84.8%; Activity [22]: 20.7%; Activity [23]: 36.4%
